{
  "source": "patent US11938184B2",
  "about": "“Compositions and methods for treating Crohn's Disease and related conditions and infections” (priority 2012, dated 2024)",
  "origin": "cited, not measured here",
  "test_system": "Crohn's disease fistulae",
  "data": [
    {"substance": "infliximab", "values": [
      {"measurement": "response in fistulae", "setting": "ACCENT 2 trial, after 14 weeks", "result": 60, "unit": "%"},
      {"measurement": "fistulae maintaining closure", "setting": "ACCENT 2 trial, at 1 year", "result": 36, "unit": "%"},
      {"measurement": "healing of perianal fistulae", "setting": "infliximab alone", "result": "46-78%"},
      {"measurement": "healing of recto-vaginal fistulae", "setting": "infliximab alone", "result": "14-30%"},
      {"measurement": "fistulae initially healed", "setting": "initial phase II and subsequent phase III trials, 296 patients", "result": "56-68%"},
      {"measurement": "median duration of fistula closure", "setting": "normally requiring 3 doses of infliximab", "result": "approximately 3 months"}
    ]}
  ]
}
